Results published in patent US6706728B2, “Systems and methods for treating a mucosal surface” (3M Innovative Properties Company, priority 1999, dated 2004).

Tests used:
Format in all cases: in vivo, human
[1] = Single dose cervical application study: systemic exposure (PK) of imiquimod in serum
Procedure: (§1) This was a single dose, randomized, double-blind, placebo controlled dose escalation study which evaluated five doses of imiquimod. 50, 100, 150, 200 and 250 mg of imiquimod in a cream formulation were applied to the cervix for eight hours. Each dose group was composed of 8 subjects (6 active and 2 placebo), with two subjects treated as dose leaders, and the remaining six subjects were treated after an acceptable response by the dose leaders. Safety was assessed by adverse events (AE's), laboratory tests, and colposcopy with photodocumentation of the cervix at pre-dose and 24 hours post-dose, and 48 hours post-dose if required. Systemic exposure (PK) was determined by measuring imiquimod and metabolites through 48 hours post-dose and the PD response was determined by serum analysis for the cytokines: tumor necrosis factor-α (TNF-α), interferon-α (IFN-α), interleukin-1 receptor […] (IL-1RA), interleukin-6 (IL-6), neopterin (NPT) and 2′5′ oligoadenlyate synthetase (2′5′ AS) during dosing and selected times during the 48 hours post-dose. Statistical tests to evaluate AE's and demographics, laboratory tests, vital signs and ECG's were Fisher's Exact, Wilcoxon Rank-Sum and Kruskall Wallis Tests respectively. Cytokine changes between dose groups were compared using Wilcoxon Rank-Sum and changes from baseline were evaluated using Spearman Rank Correlation.

cervix = test: Single dose cervical application study: safety (adverse events, pelvic and colposcopic examination)
Procedure: as §1

[2] = test system: serum cytokines (TNF-α, IFN-α, IL-1RA, IL-6, NPT, 2′5′ AS); test: Single dose cervical application study: PD response by serum analysis for cytokines
Procedure: as §1

[3] = single doses up to 250 mg applied to the cervix for 8 hours, healthy volunteers
[4] = serum, 150 mg, 200 mg and 250 mg groups

serum levels of imiquimod ([1]; single dose 50-250 mg imiquimod cream (Formulation A) applied to the cervix for 8 hours, through 48 hours post-dose, quantifiable >5 ng/ml): ≤ 5 ng/mL
systemic exposure [1, 3]: minimal systemic exposure
Compound: CC(C)Cn1cnc2c(N)nc3ccccc3c21 [imiquimod, 1-(2-methylpropyl)-1H-imidazo[4,5-c] quinolin-4-amine]
time to resolution of cervical reactions (cervix; 250 mg dose group): ≤ 48 h
subjects experiencing cervical changes of minor small vesicles or smaller ulcer (cervix; 250 mg dose group, pelvic and colposcopic examination): 2 of 6
overall safety (cervix; [3]): safe
systemic concentration of certain cytokines ([2]; cervical application of a dose ≧150 mg): increases
2′5′ AS change from baseline [2, 4]: Significant changes from baseline
IL-1RA change from baseline [2, 4]: Significant changes from baseline
NPT (neopterin) change from baseline [2, 4]: Significant changes from baseline
IFN change from baseline ([2]; serum, 250 mg group): Significant changes from baseline
IL-6 change from baseline ([2]; serum, 250 mg group): Significant changes from baseline
